Experimental data: EP2386565A2, “Compounds and methods to inhibit or augment an inflammatory response” (Cambridge Enterprise Ltd., priority 1999, dated 2000)
“And” between values parts separate entries of the source, which are not always exact repeats. Equal values may be shown once. Positions of bridges follow the written chain, without caps; N, C: chain ends. Non-standard residues stand in square brackets, D forms with d. Residues, ends and D or L forms follow the SMILES beside them.

What was measured:
[1] = Acute and 7-day repeat dose toxicity study; assay type: in vivo, rat
From the text: That is, all animals remained clinically normal throughout.

B cells = assay type: cell-based
[2] = system: ovalbumin-induced pulmonary inflammation, IgE, IL-4 and recall responses; test: Ovalbumin-induced asthma / hypersensitivity model; assay type: in vivo, mice; design: Total IgE (Serum), individual mice m1-m4 / Total IgE (Serum), Avg.: unit not given here
Experimental: A third study assessed the efficacy of daily dosing with CRD-Leu4Ile11Cys13 peptide 3(3-12)[MCP-1] to reduce OVA-induced pulmonary inflammation. Mice were sensitized with 0.1 mg of ovalbumin or PBS (diluent control) intraperitoneally in the absence of the test agent. […] These treatments were given daily from day 8 through day 21. On day 8, thirty minutes following treatment, mice were challenged intratracheally with 1% ovalbumin or PBS. On days 15, 18, and 21, thirty minutes following treatment, mice were challenged intratracheally with 2% ovalbumin or PBS. Mice were sacrificed 3 hours post-ovalbumin challenge, on day 21. Lungs were collected for histopathology, and for isolation of cells for total cell counts and FACS analysis. Bronchalveolar lavage (BAL) was collected for eicosinoid levels. Serum was collected for IgE and IL-4 levels. Spleens were collected for cytokine recall responses. […]

[3] = Group 2: Ova on days 8, 15, 18, 21, treat 1 × day 21, sacrifice day 21, 0 µg/ml Ova
[4] = Group 4: Ova on days 8, 15, 18, 21 & 35, treat BID 14 days, sacrifice day 35 (recent Ova challenge), 0 µg/ml Ova

Structure (SMILES): CC[C@@H](C)[C@H]1NC(=O)[C@@H](CCC(N)=O)NC(=O)[C@H](N)CSSC[C@H](C(N)=O)NC(=O)[C@@H](CC(C)C)NC(=O)[C@@H](CC(=O)O)NC(=O)[C@H]2CCCN2C(=O)[C@@H](CCCCN)NC(=O)[C@@H](CCC(N)=O)NC(=O)[C@@H](CCCCN)NC(=O)[C@@H](Cc2c[nH]c3ccccc23)NC1=O (H-[dC][dQ][dI][dW][dK][dQ][dK][dP][dD][dL][dC]-NH2; disulfide 1-11)
- acute toxicity (in words) ([1]; 1 or 10 mg (5-50 mg/kg) i.v.): no clinically detectable changes
- 7-day repeat dose toxicity (in words) ([1]; subcutaneous osmotic mini-pump, about 43 µg/hr for 7 days (7.2 mg)): no dose dependent or clinically significant changes
- proliferation of B cells to tetanus toxoid (in words) (B cells): no effect
- Total IgE (Serum), Avg. ([2]; Group 2): 1.505
- Total IgE (Serum), individual mice m1-m4 ([2]; Group 2 (single treatment day 21)): 1.952 and 1.132 and 2.073 and 0.863
- IL-4 Assays, pg/ml IL-4, Avg. of Group [2, 3]: 2.89 pg/mL
- IL-4 Assays, pg/ml IL-4, individual mice m1-m4 [2, 3]: 2.81 pg/mL and 5.60 pg/mL and 0.25 pg/mL and 0.45 pg/mL
- Total IgM + IgG (1 week splenocyte cultures), Avg. [2, 3]: 57.45
- Total IgM + IgG (1 week splenocyte cultures), individual mice m1-m4 [2, 3]: 108.00 and 24.97 and 40.65 and 56.17
- Total IgE (1 week splenocyte cultures) ([2]; Group 2, 0 µg/ml Ova): 0.067 ng/mL
- Total IgE (1 week splenocyte cultures), Avg. ([2]; Group 2, 0 µg/ml Ova): 0.017
- Total IgE (1 week splenocyte cultures), individual mice m1-m4 ([2]; Group 2, 0 µg/ml Ova): 0.000 and 0.051 and 0.007 and 0.009
- IL-4 Assays, pg/ml IL-4, Avg. of Group ([2]; Group 2, 5 µg/ml Ova): 5.86 pg/mL
- IL-4 Assays, pg/ml IL-4, individual mice m1-m4 ([2]; Group 2, 5 µg/ml Ova): 3.18 pg/mL and 8.55 pg/mL
- Total IgE (1 week splenocyte cultures) ([2]; Group 2, 5 µg/ml Ova): 0.128 ng/mL
- Total IgE (1 week splenocyte cultures), Avg. ([2]; Group 2, 5 µg/ml Ova): 0.032
- Total IgE (1 week splenocyte cultures), individual mice m1-m4 ([2]; Group 2, 5 µg/ml Ova): 0.041 and 0.023
- Total IgM + IgG (1 week splenocyte cultures), Avg. ([2]; Group 2, 5 µg/ml Ova): 150.46
- Total IgM + IgG (1 week splenocyte cultures), individual mice m1-m4 ([2]; Group 2, 5 µg/ml Ova): 254.36 and 46.56
- IL-4 Assays, pg/ml IL-4, Avg. of Group ([2]; Group 2, 50 µg/ml Ova): 12.57 pg/mL
- IL-4 Assays, pg/ml IL-4, individual mice m1-m4 ([2]; Group 2, 50 µg/ml Ova): 7.10 pg/mL and 11.46 pg/mL and 19.15 pg/mL and 75.36 pg/mL
- Total IgE (1 week splenocyte cultures) ([2]; Group 2, 50 µg/ml Ova): 0.024 ng/mL
- Total IgE (1 week splenocyte cultures), Avg. ([2]; Group 2, 50 µg/ml Ova): 0.006
- Total IgE (1 week splenocyte cultures), individual mice m1-m4 ([2]; Group 2, 50 µg/ml Ova): 0.011 and 0.002 and 0.004 and 0.007
- Total IgM + IgG (1 week splenocyte cultures), Avg. ([2]; Group 2, 50 µg/ml Ova): 241.75
- Total IgM + IgG (1 week splenocyte cultures), individual mice m1-m4 ([2]; Group 2, 50 µg/ml Ova): 137.57 and 176.41 and 331.79 and 321.23
- ng/ml IgE (4X avg.) ([2]; Group 2, serum): 6.020 ng/mL
- Total IgE (Serum), Avg. ([2]; Group 4): 0.621
- Total IgE (1 week splenocyte cultures), individual mice m1-m4 ([2]; Group 4 (recent Ova challenge), 0 µg/ml Ova, listed as CRD-Leu4Ile11Cys13peptide 3(3-12)[MCP-1]): 0.008 and 0.001 and 0.015 and 0.002
- Total IgE (Serum), individual mice m1-m4 ([2]; Group 4 (treated 14 days, recent Ova challenge)): 0.310 and 0.298 and 0.984 and 0.890
- IL-4 Assays, pg/ml IL-4, Avg. of Group [2, 4]: 2.92 pg/mL
- Total IgM + IgG (1 week splenocyte cultures), Avg. [2, 4]: 17.16
- Total IgE (1 week splenocyte cultures) ([2]; Group 4, 0 µg/ml Ova): 0.026 ng/mL
- Total IgE (1 week splenocyte cultures), Avg. ([2]; Group 4, 0 µg/ml Ova): 0.007
- IL-4 Assays, pg/ml IL-4, Avg. of Group ([2]; Group 4, 5 µg/ml Ova): 8.05 pg/mL
- IL-4 Assays, pg/ml IL-4, individual mice m1-m4 ([2]; Group 4, 5 µg/ml Ova): 10.40 pg/mL and 12.77 pg/mL and 4.59 pg/mL and 4.45 pg/mL
- Total IgE (1 week splenocyte cultures) ([2]; Group 4, 5 µg/ml Ova): 0.096 ng/mL
- Total IgE (1 week splenocyte cultures), Avg. ([2]; Group 4, 5 µg/ml Ova): 0.024
- Total IgM + IgG (1 week splenocyte cultures), Avg. ([2]; Group 4, 5 µg/ml Ova): 163.95
- Total IgE (1 week splenocyte cultures), individual mice m1-m4 ([2]; Group 4, 5 µg/ml Ova, listed as CRD-Leu4Ile11Cys13peptide 3(3-12)[MCP-1]): 0.009 (2×) and 0.047 and 0.031
- Total IgM + IgG (1 week splenocyte cultures), individual mice m1-m4 ([2]; Group 4, 5 µg/ml Ova, listed as CRD-Leu4Ile11Cys13 peptide 3(3-12)[MCP]): 189.07 and 249.75 and 148.16 and 68.83
- IL-4 Assays, pg/ml IL-4, Avg. of Group ([2]; Group 4, 50 µg/ml Ova): 14.45 pg/mL
